Laboratory results as given in patent US20260085340A1, “METHOD FOR SINGLE CELL ANTIMICROBIAL SUSCEPTIBILITY TESTING IN A SUB-DOUBLING TIME” (The Penn State Research Foundation, priority 2022, published 2026).
Converted amounts (≈) assume the structure as drawn. “Also recorded” adds a separate entry of the source. Read-outs that look alike come from different tables or passages of the source.

Assays:
[1] = tested on: Klebsiella pneumoniae; assay: Time-lapse single cell imaging of K. pneumoniae treated with meropenem (cell division, morphology); assay type: cell-based; details: for bulging or protrusion around the center of the cell: 5 μg/mL meropenem, early time points
Experimental: Klebsiella pneumoniae isolates (listed in Table 1 below) from the CDC & FDA Antimicrobial Resistance (AR) bank and American Type Culture Collective (ATCC) were grown in Mueller Hinton Broth (MHB) at 37° C. overnight. The next day, cells were sub-cultured in fresh MHB media for three hours (growth phase) to a density equivalent to OD600=0.5. Bacteria cells (10 μL) were treated with 10 μL meropenem at varying final concentrations of 0, 0.05, 0.5, 5, and 50 μg/mL to ascertain the physiological responses of cells. A subset of these isolates was treated with finer range of antimicrobial concentrations (0.02, 0.04, 0.016, 0.032, 0.064, 0.125, 0.5, 1, 2 μg/mL) to train the algorithm for quantitative prediction of MIC. The MICs of the isolates were obtained from the CDC and independently confirmed using the broth microdilution method according to the CDC guideline.
Bacteria cells and meropenem in liquid media are briefly vortexed prior to mounting on 1% (v/v) UltraPure agarose pad (10×20 mm, Invitrogen) on a microslide covered with a glass coverslip (#1.5, 22×30 mm). Bacteria imaging was performed using a Nikon Ti2-E inverted microscope equipped with a DS-Qi2 CMOS camera and an Okolab stage-top temperature control chamber (37° C., 5% CO2). Images were acquired using a Nikon CFI Plan Apochromat 1 DM 100× oil objective lens and an external Phase Contrast (Ph3) module. Each isolate was observed over a period of 75 minutes (15-90 minutes after mixing with the antimicrobial).
Time-series images were stacked and corrected for shifts in the time series using the Template Matching and Slice Alignment ImageJ plugin. Each individual stack was then analyzed using the MicrobeJ plugin for ImageJ. The plugin, designed for the detection and analysis of bacterial cells, uses computer vision algorithms to automatically identify a cell and determine a suite of morphological features, such as its area, length, circularity, and perimeter (see Table 2 below). The tracking data were summarized as a table and exported as a comma-separated values (.csv) file for further analysis.
(§1) We developed a non-limiting example machine learning workflow for rapid AST in a sub-doubling time of the bacteria. The MorphoAST workflow started with imaging of individual bacteria under various antimicrobial concentrations (FIG. 1A). Cells were grown to log phase and treated with varying concentrations of meropenem. Cells without any antimicrobials were imaged in the same manner as controls for the experiment. Live bacteria were mounted on an agarose pad to minimize cell movement due to cell motility and Brownian motion. Time-lapse images were taken every 5 minutes. Images were aligned to match the location of individual cells at each frame and then subject to MicrobeJ analysis for extracting morphological features. A total of 21 parameters (Table 2) describing the cellular dimension and orientation were generated. The data were analyzed either fitting with an exponential function to extract the feature changing rates (FIG. 1B) or normalized against the untreated control to extract the feature differentials (FIG. 1C). The data were applied to train and validate machine learning classifiers to predict the antimicrobial response (FIG. 1D) and regressors to predict the MIC of the bacterial strain against the antimicrobial (FIG. 1E).

[2] = tested on: Klebsiella pneumoniae isolates; details: cited from earlier work
[3] = tested on: clinical samples of KP (VA_1 and VA_2); assay: MorphoAST MIC prediction with Random Forest regressor (concentration differential) from single cell imaging; assay type: cell-based, Klebsiella pneumoniae; details: for MIC: Klebsiella pneumoniae
Experimental: as §1
We further evaluated the use of the concentration differential data for MIC prediction. A Random Forest regressor was trained from a total of 39,135 cells across the concentrations. […] The Random Forest regressor predicted the MIC in the 5-fold cross-validated training dataset with an RMSE of 0.8, MAE of 0.2, and an R^2 of 0.93. The performance of the model was assessed against 5 unseen KP strains, which comprised 6,067 cells. The experimental MIC and predicted MIC of the 5 unseen strains based on the Random Forest regressor are compared in FIG. 9B. […] The predicted and experimentally reported MIC labels were also compared. Based on the predicted MIC for each strain, the model correctly predicted 100% (2/2) of the susceptible and intermediate (1/1) bacteria in as few as 30 minutes. The performance of the model increased with the antimicrobial exposure time and achieved 100% CA with 0% ME and 0% VME in 50 minutes. We then tested the model performance in predicting the MIC for individual cells within each population of the unseen strains tested (FIG. 9C). While there is heterogeneity in calls for individual cells from a single population, ˜79.9% of cells from 3/5 strains tested (KP 003, KP_139, and KP_U3) had predicted MICs within one-two fold dilution from the experimental MIC after 20 minutes of antimicrobial exposure. After 50 minutes of exposure, ˜85.1% of all cells from 5/5 tested strains had predicted MICs within one-two fold dilution from experimental MIC.
(§2) In addition to validation against unseen strains, the model was tested against imaging data from two clinical samples of KP obtained from patients visiting the VA (Palo Alto) with urinary tract infections (FIG. 9D-E). The experimental MICs for these clinical samples (VA_1 and VA_2) was 0.5 μg/mL, i.e., susceptible. […] When the incubation time was increased to 50 minutes, both strains were predicted to have a mode MIC of 1 μg/mL which accurately classifies both clinical isolates as susceptible with an MIC within one-two fold dilution from the experimental MIC resulting.

[4] = tested on: clinical samples of KP (VA_1 and VA_2); assay: Experimental MIC of clinical samples of KP from patients with urinary tract infections; assay type: cell-based, Klebsiella pneumoniae
Experimental: as §2

MIC ([3]; 20 min, clinical sample VA_1, within 20 minutes of meropenem treatment, read-out: predicted MIC): 8 µg/mL (≈ 20.9 µM) | MIC ([3]; 20 min, clinical sample VA_2, within 20 minutes of meropenem treatment, read-out: predicted MIC): 7 µg/mL (≈ 18.3 µM) | MIC ([3]; 50 min, clinical sample VA_1, 50 minutes incubation, read-out: predicted mode MIC): 1 µg/mL (≈ 2.61 µM) | MIC ([3]; 50 min, clinical sample VA_2, 50 minutes incubation, read-out: predicted mode MIC): 1 µg/mL (≈ 2.61 µM) | MIC ([4]; Klebsiella pneumoniae, clinical sample VA_1): 0.5 µg/mL | susceptibility category from experimental MIC ([4]; clinical sample VA_1): susceptible | experimental MIC ([4]; clinical sample VA_2): 0.5 µg/mL | susceptibility category from experimental MIC ([4]; clinical sample VA_2): susceptible
Compound: C[C@@H](O)[C@H]1C(=O)N2C(C(=O)O)=C(S[C@@H]3CN[C@H](C(=O)N(C)C)C3)[C@H](C)[C@H]12 [Meropenem, meropenem]
Bulging of the cells ([1]; K. pneumoniae KP0142, 50 μg/ml meropenem versus 0 μg/ml): observed only in the meropenem case; also recorded: only observed in the meropenem case | cell division ([1]; K. pneumoniae KP0142, 50 μg/ml meropenem, time-lapse imaging): completely inhibited | bulging or protrusion around the center of the cell ([1]; KP0016 (susceptible)): noticeable ‘bulging’ or protrusion around the center of the cell | bulging or protrusion around the center of the cell ([1]; KP0142 (intermediate)): noticeable ‘bulging’ or protrusion around the center of the cell | bulging or protrusion around the center of the cell ([1]; KP0143 (resistant)): not observed | MIC of the strain ([2]; K. pneumoniae KP0142): 2 µg/mL | Meropenem MIC ([2]; KP strain AR Bank# 0010): 1 µg/mL | Meropenem MIC ([2]; KP strain AR Bank# 0016): < 0.5 µg/mL | Meropenem Susc. ([2]; KP strain AR Bank# 0016): Susceptible | Meropenem MIC ([2]; KP strain AR Bank# 0028): < 0.5 µg/mL | Meropenem MIC ([2]; KP strain AR Bank# 0120): > 8 µg/mL | Meropenem MIC ([2]; KP strain AR Bank# 0140): 2 µg/mL | Meropenem MIC ([2]; KP strain AR Bank# 0142): 2 µg/mL | Meropenem Susc. ([2]; KP strain AR Bank# 0142): Intermediate | Meropenem MIC ([2]; KP strain AR Bank# 0143): > 8 µg/mL | Meropenem Susc. ([2]; KP strain AR Bank# 0143): Resistant | Meropenem MIC ([2]; KP strain AR Bank# 0147): 0.5 µg/mL | Meropenem MIC ([2]; KP strain AR Bank# 0153): > 8 µg/mL | Meropenem MIC ([2]; KP strain AR Bank# 0160): > 8 µg/mL | Meropenem MIC ([2]; KP strain ATCC 700603): ≤ 0.25 µg/mL | Meropenem MIC ([2]; KP strain ATCC BAA-1705): > 8 µg/mL | predicted susceptibility category ([3]; clinical sample VA_1, 50 minutes incubation): susceptible | predicted susceptibility category ([3]; clinical sample VA_1, within 20 minutes of meropenem treatment): resistant | predicted susceptibility category ([3]; clinical sample VA_2, 50 minutes incubation): susceptible | predicted susceptibility category ([3]; clinical sample VA_2, within 20 minutes of meropenem treatment): resistant
